Laboratory results: BindingDB's records for doi:10.1016/j.bmcl.2012.05.087 (Actelion Pharmaceuticals, 2012)

Experiment: Antagonist activity at human CRTh2 receptor in human whole blood assessed as inhibition of PGD2-induced eosinophil shape change after 10 mins by flow cytometric analysis in presence of 50% human plasma

SMILES	IC50 [nM]
COc1ccc(C(=O)N2CCc3ccccc32)cc1CSc1nc2cc(F)ccc2n1CC(=O)O	51
CCCCNC(=O)c1ccc(OC)c(CSc2nc3cc(F)ccc3n2CC(=O)O)c1	41
COc1ccc(C(C)=O)cc1CSc1nc2ccccc2n1CC(=O)O	16
